This passage reports inhibition results from paper PMC6934184, “Selective DNA-PKcs inhibition extends the therapeutic index of localized radiotherapy and chemotherapy” (The Journal of Clinical Investigation, 2019).

The target of the assay is T1, ALK F1174L (Homo sapiens, UniProt Q9UM73, F1174L).
T1 construct: purchased Thermo Fisher Scientific (Life Technologies) SelectScreen
Kind of assay: SelectScreen LanthaScreen. The settings on record: read-out: % displacement. Format: binding. Summed up:
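NU5455 was profiled across the SelectScreen Broad panel of kinase activity and binding assays. Z'LYTE reactions such as CSF1R ran at apparent Km ATP, while the Adapta CAMK1 assay used ATP listed as 10. Values are given as percent.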
A general note: In TR-FRET formats the signal depends on donor and acceptor labels being close together.

Each structure is given as a SMILES string.

T1 sequence (Q9UM73 19-1620 F1174L): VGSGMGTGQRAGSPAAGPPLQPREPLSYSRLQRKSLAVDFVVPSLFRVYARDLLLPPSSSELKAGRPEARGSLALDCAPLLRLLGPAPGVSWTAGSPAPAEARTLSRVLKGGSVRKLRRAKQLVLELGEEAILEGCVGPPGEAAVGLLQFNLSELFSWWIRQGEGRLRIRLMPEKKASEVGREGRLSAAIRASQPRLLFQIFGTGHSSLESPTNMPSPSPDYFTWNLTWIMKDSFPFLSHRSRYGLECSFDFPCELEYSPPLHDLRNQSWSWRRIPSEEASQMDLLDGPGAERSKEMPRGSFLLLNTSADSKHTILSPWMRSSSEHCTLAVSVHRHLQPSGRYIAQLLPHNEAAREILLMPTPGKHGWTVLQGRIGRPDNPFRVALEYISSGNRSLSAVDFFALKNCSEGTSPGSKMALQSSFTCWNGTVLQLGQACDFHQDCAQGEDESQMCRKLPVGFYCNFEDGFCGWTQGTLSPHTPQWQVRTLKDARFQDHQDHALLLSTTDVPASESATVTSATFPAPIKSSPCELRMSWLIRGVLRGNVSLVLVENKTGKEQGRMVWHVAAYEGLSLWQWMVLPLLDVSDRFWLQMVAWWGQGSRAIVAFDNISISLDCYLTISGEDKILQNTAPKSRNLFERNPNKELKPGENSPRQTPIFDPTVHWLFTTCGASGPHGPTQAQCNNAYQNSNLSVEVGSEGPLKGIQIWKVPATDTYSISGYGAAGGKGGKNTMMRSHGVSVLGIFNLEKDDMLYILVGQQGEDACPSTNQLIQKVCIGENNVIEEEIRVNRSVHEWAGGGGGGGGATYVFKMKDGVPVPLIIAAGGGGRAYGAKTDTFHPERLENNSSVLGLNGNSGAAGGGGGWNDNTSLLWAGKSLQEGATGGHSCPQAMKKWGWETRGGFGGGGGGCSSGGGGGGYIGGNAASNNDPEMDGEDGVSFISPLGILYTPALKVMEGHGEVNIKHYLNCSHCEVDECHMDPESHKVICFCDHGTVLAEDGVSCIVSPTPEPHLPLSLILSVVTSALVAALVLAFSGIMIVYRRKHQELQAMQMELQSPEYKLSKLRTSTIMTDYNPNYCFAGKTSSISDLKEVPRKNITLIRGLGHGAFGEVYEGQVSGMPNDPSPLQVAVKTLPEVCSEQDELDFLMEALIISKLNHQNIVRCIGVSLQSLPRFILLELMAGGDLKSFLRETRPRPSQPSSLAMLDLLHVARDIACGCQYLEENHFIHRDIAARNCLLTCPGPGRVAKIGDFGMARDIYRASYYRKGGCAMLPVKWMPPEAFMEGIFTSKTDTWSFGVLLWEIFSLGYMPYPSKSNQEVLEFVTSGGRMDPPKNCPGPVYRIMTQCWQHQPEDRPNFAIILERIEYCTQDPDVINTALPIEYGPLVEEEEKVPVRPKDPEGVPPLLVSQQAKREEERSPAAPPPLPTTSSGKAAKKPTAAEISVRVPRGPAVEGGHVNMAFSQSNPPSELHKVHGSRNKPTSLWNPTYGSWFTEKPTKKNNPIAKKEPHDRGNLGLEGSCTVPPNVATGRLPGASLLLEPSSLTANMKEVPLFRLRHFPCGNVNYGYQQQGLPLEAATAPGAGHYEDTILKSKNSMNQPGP

Turning to `CN(C(=O)CN1CCOCC1)c1ccc2sc3c(-c4cccc5c(=O)cc(N6CC7CCC(C6)O7)oc45)cccc3c2c1` [NU5455], the inhibition at 1 µM worked out at 1.6%.
